The values below come from ChEMBL document CHEMBL1142474, “Structure-activity relationship studies of imidazo[1,2-c]pyrimidine derivatives as potent and orally effective Syk family kinases inhibitors” (Bioorg Med Chem, 2008).

pIC50: −log10 of the molar value. ≈ marks a conversion by molar mass, not a printed value. Calls of active or inactive are those of the source. The calls are words filed in the database; no cut-off is given here.

Data set [1] in a line: Apparent permeability across human Caco-2 cells. In kind it is ADME, cell-based.
The subject of data set [2] is PBMC. The experiment in a line: Inhibition of IL2 production in PHA-stimulated human PBMC after 24 hrs by ELISA. (In general: In an ELISA, binding on a coated surface is turned into a signal by an enzyme label.)
Data set [3] concerns Blood. The data set can be described thus: Inhibition of IL2 production in PHA-stimulated human whole blood after 24 hrs by ELISA.
In data set [4] the test system is Mus musculus. The data set can be described thus: Suppression of concanavalin A-induced IL2 production in po dosed ICR mouse administered 1 hr before concanavalin A challenge relative to control.
For data set [5], the system named is Mus musculus. The data set can be described thus: Plasma concentration in mouse at 10 mg/kg, po. Further details: dose 10 mg/kg, route oral. Particulars: in vivo. In kind it is ADME, organism-based.
Data set [6] has as its system Mus musculus. The experiment in a line: Plasma concentration in mouse at 30 mg/kg, po. The data set is classed as ADME, organism-based. Details: dose 30 mg/kg, route oral. The settings on record: in vivo.
Data set [7] concerns Mus musculus. The experiment in a line: Plasma concentration in mouse at 100 mg/kg, po. In kind it is ADME, organism-based. Further details: dose 100 mg/kg, route oral. The settings on record: in vivo.
The target of data set [8] is T1, Tyrosine-protein kinase ZAP-70 (Homo sapiens, UniProt P43403).
T1 sequence (P43403 whole entry): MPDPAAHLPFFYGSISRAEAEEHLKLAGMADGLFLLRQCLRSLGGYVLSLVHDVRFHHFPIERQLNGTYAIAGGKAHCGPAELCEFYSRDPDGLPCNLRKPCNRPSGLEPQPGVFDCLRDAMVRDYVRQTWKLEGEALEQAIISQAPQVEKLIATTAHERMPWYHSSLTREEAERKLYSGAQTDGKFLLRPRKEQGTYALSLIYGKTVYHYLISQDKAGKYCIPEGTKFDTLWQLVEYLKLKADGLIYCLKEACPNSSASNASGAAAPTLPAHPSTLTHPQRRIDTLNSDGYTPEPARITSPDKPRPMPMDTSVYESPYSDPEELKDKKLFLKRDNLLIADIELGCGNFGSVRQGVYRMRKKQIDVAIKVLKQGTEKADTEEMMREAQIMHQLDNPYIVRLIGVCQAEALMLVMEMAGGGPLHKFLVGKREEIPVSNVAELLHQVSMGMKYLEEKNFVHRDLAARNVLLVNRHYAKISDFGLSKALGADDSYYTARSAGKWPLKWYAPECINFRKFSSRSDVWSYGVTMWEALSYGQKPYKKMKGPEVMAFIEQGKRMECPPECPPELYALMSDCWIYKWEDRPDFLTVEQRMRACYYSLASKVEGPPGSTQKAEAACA
The experiment in a line: Inhibition of human ZAP70 expressed in Sf9 cells.

The target in data set [9] is Tyrosine-protein kinase SYK (Homo sapiens, UniProt P43405).
Description: Inhibition of human Syk expressed in Sf9 cells
Data set [10] is described as follows: Solubility in water. In kind it is physicochemical.
Data set [11] concerns Mus musculus. The data set can be described thus: Suppression of anti-dinitrophenyl-coupled IgE-induced passive cutaneous anaphylaxis reaction in po dosed ICR mouse administered 1 hr before antigen challenge relative to control. In kind it is functional, organism-based.
Data set [12] concerns Mus musculus. The experiment in a line: Plasma concentration in mouse at 3 mg/kg, po. The data set is classed as ADME, organism-based. Further details: dose 3 mg/kg, route oral. The settings on record: in vivo.

What is called Papp is a coefficient for how fast a substance crosses the barrier. By pIC50 is commonly meant the negative decadic logarithm of the IC50, by convention in mol/L. As to `COc1cc(Nc2nc(N[C@H]3CCCC[C@H]3N)n3cc(-c4ccccc4)nc3c2C(N)=O)cc(OC)c1`, the Papp in data set [1] was found to be 0.43 ×10⁻⁶ cm/s. Moreover, the pIC50 was 6.70 in data set [2] and 5.70 in data set [3].

`COc1cc(Nc2nc(N[C@H]3CCCC[C@H]3N)n3ncnc3c2C(N)=O)cc(OC)c1`: the apparent permeability (Papp) in data set [1] is 0.33 ×10⁻⁶ cm/s. The pIC50 was 7.12 in [2] and 6.32 in [3]. Besides, the result in [4] was inactive.

In the case of `COc1cc(Nc2nc(N[C@H]3CCCC[C@H]3N)n3cnnc3c2C(N)=O)cc(OC)c1`, the Papp in [1] is 0.01 ×10⁻⁶ cm/s. Also, the pIC50 was 7.34 in [2] and 6.36 in data set [3]. Moreover, the Cp in data set [5] was 28.4 ng/mL; in data set [6], 26.5 ng/mL; in data set [7] it was 45.2 ng/mL. Also, the result in [4] was inactive.

Take `COc1ccccc1Nc1nc(N[C@H]2CCCC[C@H]2N)n2ccnc2c1C(N)=O` (relative stereo): the pIC50 in [8] and in [9] was < 5.00 in each case.

On to `NC(=O)c1c(Nc2cc(F)cc(F)c2)nc(N[C@H]2CCCC[C@H]2N)n2ccnc12` (relative stereo), for which the figures for the pIC50 in [2] and in data set [3] were 6.82 and 5.52, respectively.

As for `Cc1cc(C)cc(Nc2nc(N[C@H]3CCCC[C@H]3N)n3ccnc3c2C(N)=O)c1` (relative stereo), the figures for the pIC50 in data set [2] and in data set [3] were 6.70 and 6.00, respectively.

Usually solubility stands for how much of the substance goes into solution per volume. Turning to `COc1cc(Nc2nc(N[C@H]3CCCC[C@H]3N)n3ccnc3c2C(N)=O)cc(OC)c1` (relative stereo), the concentration in solution in data set [10] (solubility) came to 930 µg/mL (≈ 2190 µM). Further, the Papp in data set [1] was 3.33 ×10⁻⁶ cm/s. Further, the pIC50 is 7.24 in [2] and 6.55 in data set [3]. Moreover, the Activity result in data set [11] and in data set [4] was “Dose-dependent effect” in each case. Also, the Cp in data set [12] was found to be 40 ng/mL; in [5], 191 ng/mL; in [6], 770 ng/mL; in data set [7] it was 4031 ng/mL.

As to `CN[C@@H]1C[C@H]2O[C@@](C)([C@@H]1OC)n1c3ccccc3c3c4c(c5c6ccccc6n2c5c31)C(=O)NC4` [STAUROSPORINE], the pIC50 in data set [2] is 7.80.
